Reference: article PMC10974505, “Evaluation of the Antifungal and Antiproliferative Properties of the Lichen Roccella tinctoria DC. Extracts and Main Components” (Pharmaceutics, 2024)
Converted amounts (≈) assume the structure as drawn.

Legend:
[1] = tested on: A549 lung cancer cells; assay: MTT cytotoxicity assay, A549 lung cancer cells; assay type: cell-based, human; conditions: for cytotoxicity at the highest concentration tested: A549 cells, 500 µg/mL
Text: (§1) A549 cells were kindly provided by Prof. Lucia Nencioni (Dept. of Public Health and Infectious Diseases, Sapienza University of Rome, Rome, Italy), while Mz-ChA-1 and H69 cells were donated by Prof. Romina […]. of Anatomical, Histological, Forensic and Orthopedic Sciences, Sapienza University of Rome, Rome, Italy) and Prof. […] (Indiana University School of Medicine, Indianapolis, IN, USA). BEAS-2B cells were provided by Sigma-Aldrich (St. Louis, MO, USA). […] The growth media were replaced twice per week; subcultures were prepared when the cells achieved approximately 80% confluency. […] In brief, 2 × 10^4 cells/well were cultured into 96-well microplates for 24 h. Then, they were subjected to a treatment with progressive concentrations of the tested extracts for further 24 h. […] The effect of the treatments on the cell viability was expressed as percentage of the vehicle control. […] In addition, tolerability studies in human epithelial BEAS-2B bronchial cells and H69 cholangiocytes were performed in order to establish the possible selective cytotoxicity of the tested samples to cancer cells.

[2] = tested on: BEAS-2B bronchial cells; assay: MTT tolerability assay, noncancerous BEAS-2B bronchial cells; assay type: cell-based, human; conditions: for inhibition of BEAS-2B cell viability: 50 µg/mL; for IC50: Homo sapiens, BEAS-2B, read-out: IC50 [µg/mL] (CL) BEAS-2B
Text: as §1

[3] = tested on: Mz-ChA-1 cholangiocarcinoma cells; assay: MTT cytotoxicity assay, Mz-ChA-1 cholangiocarcinoma cells; assay type: cell-based, human; conditions: for cytotoxicity at the highest concentration tested: Mz-ChA-1 cells, 500 µg/mL
Text: as §1

[4] = MTT tolerability assay, noncancerous H69 cholangiocytes; assay type: cell-based, human; conditions: human, SV40-immortalized H69 cholangiocytes (noncancerous); 50 µg/mL; read-out: lowering of H69 cell viability
Text: as §1

[5] = tested on: H69 cholangiocytes; assay: as above; assay type: cell-based, human; conditions: MTT, 24 h treatment, confidence limits in brackets, ne 1 = not evaluable, highest inhibitory effect lower than 80%, ne 2 = not evaluable, lower inhibitory effect higher than 40%; for IC50: Homo sapiens, read-out: IC50 [µg/mL] (CL) H69
Text: as §1

[6] = tested on: C. albicans planktonic cells; assay: Antifungal susceptibility test (broth microdilution), planktonic cells; assay type: cell-based, Candida albicans ATCC 10231; conditions: for MIC50 / MIC90 / MIC: Candida albicans; for MIC50: read-out: GM MIC50; for MIC90: minimum inhibitory concentration of 90% fungal growth, read-out: GM MIC90; for MIC: minimum inhibitory concentration of 100% fungal growth, read-out: GM MIC100
Method: Candida albicans ATCC 10231 was obtained from the American Type Culture Collection (ATCC, Rockville, MD, USA). The antifungal effects of the isolated compounds and of the extracts against C. albicans ATCC 10231 were measured using the broth microdilution method following the standardized methods for yeast. C. albicans was cultured on Sabouraud dextrose agar (Sigma Aldrich, St. Louis, MO, USA) at 35 °C for 24 h. The final concentration of the inoculum was 2500 cells/mL. The extracts and the compounds were firstly dissolved in DMSO and then diluted at least 100-times with RPMI-1640 medium buffered with MOPS (4-morpholinepropanesulfonic acid). […] The minimal inhibitory concentration (MIC) was calculated by comparison of the growth in each well with that of the drug-free control after 24 h. Each experiment was conducted in triplicate and replicated at least three times on different dates.
The antifungal activity of extracts and isolated compounds against C. albicans planktonic cells was examined following the standardized broth microdilution method for yeasts (CLSI M27-A3).

[7] = tested on: C. albicans biofilm; assay: Anti-Candida biofilm formation, 24 h (CV assay); assay type: cell-based, Candida albicans; conditions: concentration not given
Method: Presterilized, polystyrene, flat-bottom 48-well microtiter plates were used to investigate anti-Candida adhesion property of the extracts and the compounds [47, 48]. […] After that time, the cell suspensions were aspirated, and each well was washed twice with PBS to remove loosely adherent cells. Thus, CV assay was used to quantitatively study Candida adhesion (90 min) and early biofilm formation (24 h). The biomass was measured at 590 nm using a microplate reader.
(§2) Candida adhesion is followed by the colonization and formation of the biofilm, which is a community of cells with the ability to secrete the extracellular matrix (ECM). Biofilm-characterized infections are the most difficult to treat, and preventing biofilm formation could be of major importance. An anti-Candida biofilm formation assay was conducted after 24 h and 48 h of biofilm incubation, and the total biomass was evaluated using the CV assay.

[8] = tested on: C. albicans ATCC 10231; assay: Galleria mellonella survival assay (larvae infected with C. albicans); assay type: in vivo
Method: The survival assay was carried out as described by Cairone and colleagues. G. mellonella larvae weighed 0.3 ± 0.03 g and were obtained from Todaro Sport (Rome, Italy). […] Three control groups were used, one with no treatment applied, one pierced and inoculated with sterile saline solution, and one treated with C. albicans suspension. The larvae were subsequently placed in an incubator set at 37 °C and observed for 120 h. […] Each trial was replicated three times, and the outcomes were documented as the survival percentage.
G. mellonella larvae as an in vivo model were chosen due to the similarities between their immunity system and the mammalian one. Furthermore, G. mellonella larvae provide a well-established in vivo model known for its ease of handling and utilization. They are extensively employed to assess the antimicrobial efficacy of both chemical and natural compounds, aligning with the ethical guidelines of the 3Rs (Replacement, Reduction, and Refinement) in animal research.

[9] = tested on: MCF-7 (breast cancer cell line); parameters: method as in doi:10.32508/stdjns.v2i5.779; conditions: MCF-7, 100 µg/mL; isolated from Roccella sinensis; cited from earlier work
[10] = tested on: HeLa (cervical cancer cell line); parameters: method as in doi:10.32508/stdjns.v2i5.779; conditions: 100 µg/mL, isolated from Roccella sinensis; cited from earlier work
[11] = tested on: HepG2 (liver hepatocellular carcinoma cell line); parameters: method as in doi:10.32508/stdjns.v2i5.779; conditions: HepG2, 100 µg/mL; isolated from Roccella sinensis; cited from earlier work
[12] = tested on: NCI-H460 (human lung cancer cell line); parameters: method as in doi:10.32508/stdjns.v2i5.779; conditions: NCI-H460, 100 µg/mL; isolated from Roccella sinensis; cited from earlier work
[13] = tested on: different fungal strains including C. albicans; parameters: method as in PMID 30732479; conditions: cited from earlier work
[14] = tested on: C. albicans biofilm; assay: Anti-Candida biofilm formation, 48 h (CV assay); assay type: cell-based; conditions: 512 μg/mL
Method: Candida biofilm was established on flat-bottomed, 48-well microtiter plates, following previous protocols with minor modifications. […] Plates were then incubated for 48 h at 37 °C. After biofilm formation, the medium was aspirated, and non-adherent cells were removed by washing twice with phosphate-buffered saline (PBS). C. albicans biomass was quantified using CV assay.
as §2

[15] = tested on: Alternaria solani; parameters: method as in doi:10.4038/jnsfsr.v40i1.4167; conditions: 100 µg/mL; cited from earlier work
[16] = tested on: Fusarium oxysporum; parameters: method as in doi:10.4038/jnsfsr.v40i1.4167; conditions: 100 µg/mL; cited from earlier work
[17] = tested on: HCT-116 colon cancer cells; parameters: method as in PMID 35190352; conditions: cited from earlier work
[18] = MTT, 24 h treatment, confidence limits in brackets, ne 1 = not evaluable, highest inhibitory effect lower than 80%, ne 2 = not evaluable, lower inhibitory effect higher than 40%
[19] = geometric mean, minimum inhibitory concentration of 50% fungal growth, 24 h

In the case of `Cc1cc(OC(=O)c2c(C)cc(O)cc2O)cc(O)c1C(=O)OCC(O)C(O)CO` (centres unmarked) [Compound 1, erythrin], the “cytotoxicity at the highest concentration tested” value [1] is reported as “at least 60%”, the “IC50 [µg/mL] (CL) A549” value [1, 18] is reported as “ne ^1” and the “inhibition of BEAS-2B cell viability” value [2] is reported as “at least 40%”. The “IC50 [µg/mL] (CL) BEAS-2B” value [2, 18] was “ne ^2”, the “IC50 [µg/mL] (CL) Mz-ChA-1” value [3, 18] was “ne ^1” and the “cytotoxicity at the highest concentration tested” value [3] was “at least 60%”. For the same molecule, the cytotoxicity at 24 h, 50 µg/mL [4] was about 40%, the IC50 [5] was 138 µg/mL (≈ 327 µM) and the MIC50 [6, 19] was over 128 mg/L. For the same molecule, the MIC90 ([6]; geometric mean, 24 h) was over 128 mg/L, the MIC ([6]; geometric mean, 24 h) was over 128 mg/L and the “activity against the planktonic growth of C. albicans” value ([6]; at the highest concentration (512 μg/mL)) was “no activity”. For the same molecule, the “percent rate of inhibition of biofilm formation” value [7] was “lower than 40%”, the “infected larvae mortality rate” value ([8]; 256 μg/mL (10 μL), control group mortality 90%) was 20% and the “toxicity” value [9] was “nontoxic”. For the same molecule, the “toxicity” value [10] was “nontoxic”, the “toxicity” value [11] was “nontoxic” and the “toxicity” value [12] was “nontoxic”. For the same molecule, the “antifungal activity” value [13] was “not shown any antifungal activity”.
For `COC(=O)c1c(C)cc(O)cc1O` [Compound 2, methyl orsellinate], the “cytotoxicity at the highest concentration tested” value [1] was “lower than 50%”, the “IC50 [µg/mL] (CL) A549” value [1, 18] was “ne ^1” and the “inhibition of BEAS-2B cell viability” value [2] was “at least 40%”. The IC50 [2, 18] was 103 µg/mL (≈ 564 µM), the “IC50 [µg/mL] (CL) Mz-ChA-1” value [3, 18] was “ne ^1” and the “cytotoxicity at the highest concentration tested” value [3] was “lower than 50%”. The cytotoxicity at 24 h, 50 µg/mL [4] was 60%, the “IC50 [µg/mL] (CL) H69” value [5] was “ne ^2” and the MIC50 [6, 19] was 87 mg/L (≈ 478 µM). The MIC90 ([6]; geometric mean, 24 h) was over 128 mg/L, the MIC ([6]; geometric mean, 24 h) was over 128 mg/L and the “GM MIC50” value [6, 19] was 87 mg/L. For the same molecule, the inhibition at 512 µg/mL [14] was 72%, the larvae survival rate ([8]; 512 μg/mL (10 μL), after 5 days, infected control survival 10%) was 50% and the inhibition percentage [15] was 58.41%. The inhibition percentage [16] was 67.39%.
`Cc1cc(O)cc(O)c1C(=O)OCC(O)C(O)CO` (centres unmarked) [Compound 3, montagnetol] showed a melting point of 158 to 160 °C.
In the case of `COc1cccc2c1C(=O)c1c(O)c3c(c(O)c1C2=O)C[C@@](O)(C(=O)CO)C[C@@H]3O[C@H]1C[C@H](N)[C@H](O)[C@H](C)O1` [Doxorubicin, doxorubicin, reference compound], the IC50 ([1]; Homo sapiens, A549, MTT, 24 h treatment, confidence limits in brackets, ne 1 = not evaluable, highest inhibitory effect lower than 80%, ne 2 = not evaluable, lower inhibitory effect higher than 40%, read-out: IC50 [µg/mL] (CL) A549) is reported as 17.3 µg/mL (≈ 31.8 µM), the IC50 [2, 18] is reported as 4.1 µg/mL (≈ 7.54 µM) and the IC50 ([3]; Homo sapiens, MTT, 24 h treatment, confidence limits in brackets, ne 1 = not evaluable, highest inhibitory effect lower than 80%, ne 2 = not evaluable, lower inhibitory effect higher than 40%, read-out: IC50 [µg/mL] (CL) Mz-ChA-1) is reported as 24.5 µg/mL (≈ 45.1 µM). It also gave an IC50 [5] of 15.7 µg/mL (≈ 28.9 µM).
In the case of `Cc1cc(OC(=O)c2c(C)cc(O)cc2O)cc(O)c1C(=O)O` [lecanoric acid], the “effect on HCT-116 cells” value [17] is given as “affected the cell viability and colony formation, and it induced a cell cycle block”.
